Structures are written as SMILES.

Sequence of ROCK2 (O75116 whole entry, species assumed): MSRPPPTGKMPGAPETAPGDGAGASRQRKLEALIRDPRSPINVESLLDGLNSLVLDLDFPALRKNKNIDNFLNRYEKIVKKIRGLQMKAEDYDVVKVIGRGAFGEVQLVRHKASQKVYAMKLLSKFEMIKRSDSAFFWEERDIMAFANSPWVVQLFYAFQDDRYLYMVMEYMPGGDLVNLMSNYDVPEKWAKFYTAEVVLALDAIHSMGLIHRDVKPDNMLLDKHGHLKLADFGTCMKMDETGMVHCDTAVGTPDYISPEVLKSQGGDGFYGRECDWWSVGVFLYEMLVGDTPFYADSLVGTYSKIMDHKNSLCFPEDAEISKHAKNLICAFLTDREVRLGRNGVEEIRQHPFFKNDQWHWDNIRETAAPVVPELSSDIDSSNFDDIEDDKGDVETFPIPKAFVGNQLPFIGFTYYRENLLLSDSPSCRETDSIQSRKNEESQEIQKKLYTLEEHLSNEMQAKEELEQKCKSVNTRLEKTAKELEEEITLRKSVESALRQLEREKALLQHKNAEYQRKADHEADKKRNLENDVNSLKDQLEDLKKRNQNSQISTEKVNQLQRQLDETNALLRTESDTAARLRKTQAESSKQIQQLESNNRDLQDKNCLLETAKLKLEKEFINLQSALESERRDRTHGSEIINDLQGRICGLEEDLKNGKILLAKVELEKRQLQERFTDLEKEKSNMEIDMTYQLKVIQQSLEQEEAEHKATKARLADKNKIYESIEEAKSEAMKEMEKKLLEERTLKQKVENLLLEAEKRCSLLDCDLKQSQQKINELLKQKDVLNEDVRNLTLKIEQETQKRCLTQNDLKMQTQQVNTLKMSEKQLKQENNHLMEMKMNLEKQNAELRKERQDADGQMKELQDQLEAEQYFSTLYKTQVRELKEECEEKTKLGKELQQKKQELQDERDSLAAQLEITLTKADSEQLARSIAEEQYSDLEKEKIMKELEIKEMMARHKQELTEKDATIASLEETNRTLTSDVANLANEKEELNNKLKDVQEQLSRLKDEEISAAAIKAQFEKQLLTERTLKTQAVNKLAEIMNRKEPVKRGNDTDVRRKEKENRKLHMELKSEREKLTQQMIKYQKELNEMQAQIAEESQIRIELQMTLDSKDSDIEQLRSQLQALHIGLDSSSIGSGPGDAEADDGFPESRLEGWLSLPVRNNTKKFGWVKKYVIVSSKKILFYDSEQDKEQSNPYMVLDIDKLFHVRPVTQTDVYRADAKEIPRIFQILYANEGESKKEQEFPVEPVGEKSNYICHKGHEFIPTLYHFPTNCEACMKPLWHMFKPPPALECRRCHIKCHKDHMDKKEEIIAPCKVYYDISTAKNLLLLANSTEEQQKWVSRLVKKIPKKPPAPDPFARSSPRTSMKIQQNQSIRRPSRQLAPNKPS

For one test, the system named is rat stroke model.
Assay: not given
The following applies: in vivo; cited from earlier work.
With `O=S(=O)(c1cccc2cnccc12)N1CCCNCC1` [fasudil], the “infarct size and neurologic deficit” value was “reduce both the infarct size and neurologic deficit”.

For another test, the system named is neointimal formation.
Assay: not given
The following applies: rats, similar model to balloon injury; cited from earlier work.
Regarding `C[C@@H](N)[C@H]1CC[C@H](C(=O)Nc2ccncc2)CC1` [Example Y-27632, Y-27632], the neointimal formation entry was “inhibited neointimal formation”.

Another test has as its target ROCK2 (Homo sapiens (Human), UniProt O75116). The test can be described thus: ROCK assay (Caliper LABCHIP peptide phosphorylation, 5 μM ATP). It is filed as biochemical.
Details: not given
How it is done:
The effectiveness of compounds of the present invention as ROCK inhibitors can be determined in a 30 μL assay containing 20 mM HEPES, pH 7.5, 20 mM MgCl2, 0.015% Brij-35, 4 mM DTT, 5 μM ATP and 1.5 μM peptide substrate (FITC-AHA-AKRRRLSSLRA-OH) (SEQ ID No. 1). Compounds were dissolved in DMSO so that the final concentration of DMSO was <2%, and the reaction was initiated with Rho kinase variants. After incubation, the reaction was terminated by the addition of EDTA and the phosphorylated and non-phosphorylated peptides separated using a LABCHIP® 3000 Reader (Caliper Life Sciences). […] Compounds were tested in dose-response format, and the inhibition of kinase activity was calculated at each concentration of compound. The inhibition data were fit using a curve-fitting program to determine the IC50; i.e., the concentration of compound required to inhibit 50% of kinase activity. Representative Examples were tested in the ROCK assay described above and found having ROCK inhibitory activity. A range of ROCK inhibitory activity (IC50 values) of ≤50 μM (50000 nM) was observed. Table A below lists the ROCK IC50 values measured for the following examples.
Take `[H][C@]1(Oc2ncccc2C(N)=O)C[C@]2(C[C@@H](Nc3nccc(NCC(C)(C)CO)n3)C2)C1` (stereo partly drawn) [Example 45, 2-(((2S,4s,6S)-6-((4-((3-hydroxy-2,2-dimethyl-propyl)amino)pyrimidin-2-yl)amino)spiro[3.3]heptan-2-yl)oxy) nicotinamide]: the IC50 (as a rule, the concentration that gives 50% inhibition) amounted to 678 nM. `[H][C@]1(Oc2ncccc2C(N)=O)C[C@]2(C[C@@H](Nc3nccc(-c4ccncc4)n3)C2)C1` (stereo partly drawn) [Example 46, 2-(((2S,4s,6S)-6-((4-(pyridin-4-yl)pyrimidin-2-yl)amino)spiro[3.3]heptan-2-yl)oxy)nicotinamide] came in with a 50% inhibitory concentration (IC50) of 557 nM. The IC50 values of the last two compounds are within 1.5-fold of each other. As for `[H][C@]1(Oc2ncccc2C(N)=O)C[C@]2(C[C@@H](Nc3nccc(-c4ccc(F)cc4)n3)C2)C1` (stereo partly drawn) [Example 47, 2-(((2S,4s,6S)-6-((4-(4-fluorophenyl)pyrimidin-2-yl)amino)spiro[3.3]heptan-2-yl)oxy) nicotinamide], the IC50 worked out at 211 nM. Same read-out and setting: the figure for `[H][C@]1(Oc2ncccc2C(N)=O)C[C@]2(C[C@@H](Nc3nccc(-c4ccc(C#N)cc4)n3)C2)C1` (stereo partly drawn) [Example 48, 2-(((2S,4s,6S)-6-((4-(4-cyanophenyl)pyrimidin-2-yl)amino)spiro[3.3]heptan-2-yl)oxy) nicotinamide] is 204 nM.

The compound `[H][C@]1(Oc2ncccc2C(N)=O)C[C@]2(C[C@@H](Nc3nccc(-c4cccc(F)c4)n3)C2)C1` (stereo partly drawn) [Example 49, 2-(((2S,4s,6S)-6-((4-(3-fluorophenyl)pyrimidin-2-yl)amino)spiro[3.3]heptan-2-yl)oxy) nicotinamide] had an IC50 of 149 nM. The same measure, in the same setting: the figure for `[H][C@]1(Oc2ncccc2C(N)=O)C[C@]2(C[C@@H](Nc3nccc(-c4ccc(C(=O)N(C)C)cc4)n3)C2)C1` (stereo partly drawn) [Example 50, 2-(((2S,4s,6S)-6-((4-(4-(dimethyl-carbamoyl)phenyl)pyrimidin-2-yl)amino)spiro[3.3]heptan-2-yl)oxy) nicotinamide] is 1100 nM; for `[H][C@]1(Oc2ncccc2C(N)=O)C[C@]2(C[C@@H](Nc3nccc(-c4cccnc4)n3)C2)C1` (stereo partly drawn) [Example 51, 2-(((2S,4s,6S)-6-((4-(pyridin-3-yl)pyrimidin-2-yl)amino)spiro[3.3]heptan-2-yl)oxy) nicotinamide] it is 414 nM.

Compound `[H][C@]1(Oc2ncccc2C(N)=O)C[C@]2(C[C@@H](Nc3nccc(-c4cccc(C#N)c4)n3)C2)C1` (stereo partly drawn) [Example 52, 2-(((2S,4s,6S)-6-((4-(3-cyanophenyl)pyrimidin-2-yl)amino)spiro[3.3]heptan-2-yl)oxy) nicotinamide] had a 50% inhibitory concentration (IC50) of 87 nM. `[H][C@]1(Oc2ncccc2C(N)=O)C[C@]2(C[C@@H](Nc3nccc(-c4cccc(C(=O)N(C)C)c4)n3)C2)C1` (stereo partly drawn) [Example 53, 2-(((2S,4s,6S)-6-((4-(3-(dimethyl-carbamoyl)phenyl)pyrimidin-2-yl)amino)spiro[3.3]heptan-2-yl)oxy) nicotinamide] came in with a 50% inhibitory concentration (IC50) of 284 nM. The compound `[H][C@]1(Oc2ncccc2C(N)=O)C[C@]2(C[C@@H](Nc3nccc(-c4cnn(C)c4)n3)C2)C1` (stereo partly drawn) [Example 54, 2-(((2S,4s,6S)-6-((4-(1-methyl-1H-pyrazol-4-yl)pyrimidin-2-yl)amino)spiro[3.3]heptan-2-yl)oxy) nicotinamide] displayed a half-inhibitory concentration (IC50) of 874 nM. Turning to `[H][C@]1(Oc2ncccc2C(N)=O)C[C@]2(C[C@@H](Nc3ccnc(N4CCCC(F)(F)C4)n3)C2)C1` (stereo partly drawn) [Example 60, 2-(((2S,4s,6S)-6-((2-(3,3-difluoropiperidin-1-yl)pyrimidin-4-yl)amino)spiro[3.3]heptan-2-yl)oxy)nicotinamide], the 50% inhibitory concentration (IC50) turned out to be 220 nM. Compared with the last compound, the IC50 is about 4-fold lower.

`[H][C@]1(Oc2ncccc2C(N)=O)C[C@]2(C[C@@H](Nc3ccnc(N4CCC(F)(F)CC4)n3)C2)C1` (stereo partly drawn) [Example 61, 2-(((2S,4s,6S)-6-((2-(4,4-difluoro-piperidin-1-yl)pyrimidin-4-yl)amino)spiro[3.3]heptan-2-yl)oxy) nicotinamide] had a half-maximal inhibitory concentration (IC50) of 334 nM. `[H][C@]1(Oc2ncccc2C(N)=O)C[C@]2(C[C@@H](Nc3ccnc(N4CCC(F)(F)C4)n3)C2)C1` (stereo partly drawn) [Example 62, 2-(((2S,4s,6S)-6-((2-(3,3-difluoro-pyrrolidin-1-yl)pyrimidin-4-yl)amino)spiro[3.3]heptan-2-yl)oxy) nicotinamide]: the IC50 is 398 nM. The IC50 values of the last two compounds are within 1.5-fold of each other. `[H][C@]1(Oc2ncccc2C(N)=O)C[C@]2(C[C@@H](Nc3ccnc(N4CCC(F)CC4)n3)C2)C1` (stereo partly drawn) [Example 63, 2-(((2S,4s,6S)-6-((2-(4-fluoro-piperidin-1-yl)pyrimidin-4-yl)amino)spiro [3.3]heptan-2-yl)oxy) nicotinamide] displayed a half-inhibitory concentration (IC50) of 733 nM. This IC50 is about 1.8-fold higher than that of the compound before. As to `[H][C@]1(Oc2ncccc2C(N)=O)C[C@]2(C[C@@H](Nc3ccnc(N4CCCC(F)C4)n3)C2)C1` (stereo partly drawn) [Example 64, 2-(((2S,4s,6S)-6-((2-(3-fluoro-piperidin-1-yl)pyrimidin-4-yl)amino)spiro [3.3]heptan-2-yl)oxy) nicotinamide], the IC50 stood at 890 nM. Still for that read-out and setting: the figure for `[H][C@]1(Oc2ncccc2C(N)=O)C[C@]2(C[C@@H](Nc3ccnc(N4CCC(C(F)(F)F)CC4)n3)C2)C1` (stereo partly drawn) [Example 65, 2-(((2S,4s,6S)-6-((2-(4-(trifluoro-methyl)piperidin-1-yl)pyrimidin-4-yl)amino)spiro[3.3]heptan-2-yl)oxy) nicotinamide] is 964 nM; for `[H][C@]1(Oc2ncccc2C(N)=O)C[C@]2(C[C@@H](Nc3ccnc(-c4cccc(C#N)c4)n3)C2)C1` (stereo partly drawn) [Example 66, 2-(((2S,4s,6S)-6-((2-(3-cyanophenyl)pyrimidin-4-yl)amino)spiro[3.3]heptan-2-yl)oxy)nicotinamide] it is 1070 nM; for `[H][C@]1(Oc2ncccc2C(N)=O)C[C@]2(C[C@@H](Nc3ccnc(-c4cccc(C(=O)N(C)C)c4)n3)C2)C1` (stereo partly drawn) [Example 67, 2-(((2S,4s,6S)-6-((2-(3-(dimethyl-carbamoyl)phenyl)pyrimidin-4-yl)amino)spiro[3.3]heptan-2-yl)oxy) nicotinamide] it is 1170 nM.

Turning to `[H][C@]1(Oc2ncccc2C(N)=O)C[C@]2(C[C@@H](Nc3ccnc(N4CC(F)(F)C4)n3)C2)C1` (stereo partly drawn) [Example 68, 2-(((2S,4s,6S)-6-((2-(3,3-difluoro-azetidin-1-yl)pyrimidin-4-yl)amino)spiro[3.3]heptan-2-yl)oxy) nicotinamide], half-maximal inhibition (IC50) required 1300 nM. On to `[H][C@]1(Oc2ncccc2C(N)=O)C[C@]2(C[C@@H](Nc3ccnc(-c4cccc(F)c4)n3)C2)C1` (stereo partly drawn) [Example 70, 2-(((2S,4s,6S)-6-((2-(3-fluorophenyl)pyrimidin-4-yl)amino)spiro[3.3]heptan-2-yl)oxy) nicotinamide], for which inhibition was half-maximal at 2240 nM (IC50).

The next test relates to spontaneously hypertensive rat, renal hypertensive rat and deoxycortisone acetate salt hypertensive rat models.
Assay: not given
The settings on record: control rats; cited from earlier work.
For the compound `C[C@@H](N)[C@H]1CC[C@H](C(=O)Nc2ccncc2)CC1` [Example Y-27632, Y-27632], the “blood pressure in control rats” value is given as “only a minor effect on blood pressure”.

Staying with this test, now noted: three rat models of hypertension; cited from earlier work.
On to `C[C@@H](N)[C@H]1CC[C@H](C(=O)Nc2ccncc2)CC1` [Example Y-27632, Y-27632], for which the blood pressure entry was “significantly decrease blood pressure”.

The next test concerns IL-1 beta-induced coronary stenosis.
Assay: not given
The following applies: long term treatment; cited from earlier work.
Take `O=S(=O)(c1cccc2cnccc12)N1CCCNCC1` [fasudil]: the coronary constrictive remodeling result was “promote a regression of coronary constrictive remodeling” and the coronary stenosis entry is reported as “progressively reduce coronary stenosis”.

A further test concerns congestive heart failure in Dahl salt-sensitive rats.
Assay: not given
The following applies: rat, in vivo; cited from earlier work.
Turning to `C[C@@H](N)[C@H]1CC[C@H](C(=O)Nc2ccncc2)CC1` [Example Y-27632, Y-27632], the “ventricular hypertrophy, fibrosis and function” value is “improve ventricular hypertrophy, fibrosis and function”.

The values are drawn from patent publication US11299488B2, “Five membered-aminoheterocycle and 5,6-or 6,6-membered bicyclic aminoheterocyclic inhibitors of rock for the treatment of heart failure” (BRISTOL-MYERS SQUIBB COMPANY, priority 2017, dated 2022).
